The IC50 is the concentration needed to halve the response being measured.

The text below walks through data of patent US9126947B2, “Substituted pyridazine carboxamide compounds” (Xcovery Holding Company LLC, priority 2010, dated 2015).

One data set deals with ALK (Homo sapiens (Human), UniProt Q9UM73). The data set is described as follows: Ambit kinase binding assay (ALK). Conditions: read-out: ALK inhibitory activities in the Ambit assay (IC50). As to the method:
For most assays, kinase-tagged T7 phage strains were grown in parallel in 24-well blocks in an E. coli host derived from the BL21 strain. E. coli were grown to log-phase and infected with T7 phage from a frozen stock (multiplicity of infection 0.1) and incubated with shaking at 32° C. until lysis (˜90 minutes). The lysates were centrifuged (6,000×g) and filtered ([…]) to remove cell debris. The remaining kinases were produced in HEK-293 cells and subsequently tagged with DNA for qPCR detection. […] The liganded beads were blocked with excess biotin and washed with blocking buffer (SeaBlock (Pierce), 1% BSA, 0.05% Tween 20, 1 mM DTT) to remove unbound ligand and to reduce non-specific phage binding. […] Test compounds were prepared as 40× stocks in 100% DMSO and directly diluted into the assay. All reactions were performed in polypropylene 384-well plates in a final volume of 0.04 ml. […] The kinase concentration in the eluates was measured by qPCR.

A further data set has as its target c-Met (Homo sapiens (Human), UniProt P08581). As to the kind of experiment: Ambit kinase binding assay (c-Met). As to the method: Assays were performed as described in Fabian et al. (2005) Nature Biotechnology, vol. 23, p. 329 and in Karaman et al. (2008) Nature Biotechnology, vol. 26, p. 127.
For most assays, kinase-tagged T7 phage strains were grown in parallel in 24-well blocks in an E. coli host derived from the BL21 strain. E. coli were grown to log-phase and infected with T7 phage from a frozen stock (multiplicity of infection 0.1) and incubated with shaking at 32° C. until lysis (˜90 minutes). The lysates were centrifuged (6,000×g) and filtered ([…]) to remove cell debris. The remaining kinases were produced in HEK-293 cells and subsequently tagged with DNA for qPCR detection. Streptavidin-coated magnetic beads were treated with biotinylated small molecule ligands for 30 minutes at room temperature to generate affinity resins for kinase assays. The liganded beads were blocked with excess biotin and washed with blocking buffer (SeaBlock (Pierce), 1% BSA, 0.05% Tween 20, 1 mM DTT) to remove unbound ligand and to reduce non-specific phage binding. […] Test compounds were prepared as 40× stocks in 100% DMSO and directly diluted into the assay. All reactions were performed in polypropylene 384-well plates in a final volume of 0.04 ml. The assay plates were incubated at room temperature with shaking for 1 hour and the affinity beads were washed with wash buffer (1×PBS, 0.05% Tween 20). The beads were then re-suspended in elution buffer (1×PBS, 0.05% Tween 20, 0.5 mM non-biotinylated affinity ligand) and incubated at room temperature with shaking for 30 minutes. The kinase concentration in the eluates was measured by qPCR.

For another data set, the system named is H3122 tumor cells. As to the kind of experiment: Cell viability assay of tumor cells with ALK fusion proteins (H3122). Conditions: Homo sapiens, NCI-H3122; H3122, 72 hours post drug addition; read-out: Inhibition of H3122 tumor cell growth (IC50). In kind it is cell-based. How it is done:
(§1) At 72 hours post drug addition, Cell Titer Blue Reagent (Promega, Madison, Wis.) was added and fluorescence was measured on a Spectramax spectrophotometer (Molecular Devices, Sunnyvale, Calif.) according to the manufacturer's instructions. All experimental points were set up in hextuplicate replicates and were performed at least two independent times. IC50's were calculated using GraphPad Prism version 5 for Windows. The curves were fit using a nonlinear regression model with a log (inhibitor) vs. response formula.

In another data set the test system is H2228 tumor cells. The data set is described as follows: Cell viability assay of tumor cells with ALK fusion proteins (H2228). In kind it is cell-based. Conditions: Homo sapiens, NCI-H2228; H2228, 72 hours post drug addition; read-out: Inhibition of H2228 tumor cell growth (IC50). As to the method:
as §1

Data set [1] is described as follows: Human microsomal stability. Conditions: compared with Example 25 of WO 2009/154769; 1 μM, 1 mg/mL microsomes. In kind it is in vitro ADME. As to the method: Pooled human liver microsomes (1 mg/mL) are incubated at 37° C. in phosphate buffer (pH 7.4) with the test compound (1 μM). The reaction is started with the addition of NADPH. (1 mM final concentration). Incubations are stopped after 0, 5, 10, 20, 40, 60 minutes with the addition of organic solvent. Quenched samples are analyzed for unchanged test compound by LC/MS/MS detection. Percent turnover is determined by the ratio of the amount (peak area) of unchanged test compound remaining in incubated samples to the amount of unchanged test compound in non-incubated samples (0 minutes). Half-life is calculated based on the percent turnover data.

The next data set in a line: Brain penetration. The class given is in vivo. As to conditions: mice, two hours after dosing; compared with Example 1. How it is done: To determine if a compound can cross the blood-brain-barrier (BBB), mice are dosed with the test compound. Two hours after dosing, mice are sacrificed and blood and brain tissues are collected and analyzed for test compound concentration. Brain penetration is defined as ratio of compound concentration in the brain tissues to that in plasma.

The subject of data set [2] is SH-SY5Y intracranial tumor. As to the kind of experiment: SH-SY5Y intracranial tumor model. The class given is in vivo, Balb/C nude mice. As to conditions: oral gavage, vehicle 25 days. How it is done: Balb/C nude mice were anesthetized by i.p. injection of pentobarbital sodium (100 mg/kg body weight). One million SH-SY5Y cells in a volume of 10 μl full-culture medium were injected into the caudate putamen region using a small animal stereotactic apparatus. On the 7th day after implantation, the tumor-bearing mice were assigned into 4 groups, PF-1066, Example 18 low dose, Example 18 high dose, and vehicle were given twice daily (BID) by oral gavage, treatment was stopped until the animal is dead. Animal survival and body weight were observed and recorded.

For another data set, the system named is H3122 cells. The data set is described as follows: Cell apoptosis assay of tumor cells with ALK fusion proteins. The class given is cell-based. Conditions: compared with PF-2341066 at the same concentration, 72 h, FIG. 1. As to the method: For apoptosis experiments, cells were seeded in 12 well plates at 25% confluency and treated in triplicate with ALK TKI. At 72 h post drug addition, cells were collected, washed in PBS, and stained with annexin V and propidium iodide according to the manufacturer's instructions (Vybrant Apooptosis Assay Kit, Invitrogen, Carlsbad, Calif.). Data were collected on a FACSCanto II (BD Biosciences, San Jose, Calif.) and processed using WinList flow cytometry analysis software (Verity Software, Topsham, Me.).

Sequence of c-Met (P08581 25-1390): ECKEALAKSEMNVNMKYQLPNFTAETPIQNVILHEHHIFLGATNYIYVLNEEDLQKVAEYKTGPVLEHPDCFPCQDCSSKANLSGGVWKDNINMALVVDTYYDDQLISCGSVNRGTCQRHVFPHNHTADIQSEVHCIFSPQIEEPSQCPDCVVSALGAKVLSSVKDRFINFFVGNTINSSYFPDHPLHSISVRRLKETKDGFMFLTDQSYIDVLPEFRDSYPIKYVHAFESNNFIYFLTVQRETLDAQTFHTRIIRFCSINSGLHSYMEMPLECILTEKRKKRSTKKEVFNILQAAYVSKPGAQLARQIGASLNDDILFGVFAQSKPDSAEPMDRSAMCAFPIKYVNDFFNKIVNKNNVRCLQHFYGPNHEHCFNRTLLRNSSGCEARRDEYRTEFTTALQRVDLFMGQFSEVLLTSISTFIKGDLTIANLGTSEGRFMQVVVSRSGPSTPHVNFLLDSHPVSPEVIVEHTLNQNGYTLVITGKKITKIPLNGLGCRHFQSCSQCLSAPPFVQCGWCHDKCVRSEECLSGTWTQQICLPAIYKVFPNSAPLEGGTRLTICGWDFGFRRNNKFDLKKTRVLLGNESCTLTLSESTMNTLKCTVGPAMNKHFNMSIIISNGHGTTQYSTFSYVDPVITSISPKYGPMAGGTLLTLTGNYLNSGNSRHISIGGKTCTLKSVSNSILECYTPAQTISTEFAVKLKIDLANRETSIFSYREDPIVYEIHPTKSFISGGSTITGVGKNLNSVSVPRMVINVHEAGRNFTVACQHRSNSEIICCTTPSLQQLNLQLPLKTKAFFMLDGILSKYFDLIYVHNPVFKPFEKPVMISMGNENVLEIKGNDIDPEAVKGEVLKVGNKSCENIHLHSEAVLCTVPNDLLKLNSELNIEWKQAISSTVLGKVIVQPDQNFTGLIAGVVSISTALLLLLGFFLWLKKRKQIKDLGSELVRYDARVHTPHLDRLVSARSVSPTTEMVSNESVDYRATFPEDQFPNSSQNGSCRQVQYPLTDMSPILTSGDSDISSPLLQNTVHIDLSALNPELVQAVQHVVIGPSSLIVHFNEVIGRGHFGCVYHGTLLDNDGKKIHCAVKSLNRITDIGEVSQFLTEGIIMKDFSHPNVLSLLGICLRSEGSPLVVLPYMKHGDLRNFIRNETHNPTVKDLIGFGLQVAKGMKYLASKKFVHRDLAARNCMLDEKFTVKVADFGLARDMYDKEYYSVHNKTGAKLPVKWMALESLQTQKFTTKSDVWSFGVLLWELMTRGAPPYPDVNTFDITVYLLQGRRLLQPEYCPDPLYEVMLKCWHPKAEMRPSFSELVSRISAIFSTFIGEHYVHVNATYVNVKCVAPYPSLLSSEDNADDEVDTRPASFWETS
Sequence of ALK (Q9UM73 19-1620): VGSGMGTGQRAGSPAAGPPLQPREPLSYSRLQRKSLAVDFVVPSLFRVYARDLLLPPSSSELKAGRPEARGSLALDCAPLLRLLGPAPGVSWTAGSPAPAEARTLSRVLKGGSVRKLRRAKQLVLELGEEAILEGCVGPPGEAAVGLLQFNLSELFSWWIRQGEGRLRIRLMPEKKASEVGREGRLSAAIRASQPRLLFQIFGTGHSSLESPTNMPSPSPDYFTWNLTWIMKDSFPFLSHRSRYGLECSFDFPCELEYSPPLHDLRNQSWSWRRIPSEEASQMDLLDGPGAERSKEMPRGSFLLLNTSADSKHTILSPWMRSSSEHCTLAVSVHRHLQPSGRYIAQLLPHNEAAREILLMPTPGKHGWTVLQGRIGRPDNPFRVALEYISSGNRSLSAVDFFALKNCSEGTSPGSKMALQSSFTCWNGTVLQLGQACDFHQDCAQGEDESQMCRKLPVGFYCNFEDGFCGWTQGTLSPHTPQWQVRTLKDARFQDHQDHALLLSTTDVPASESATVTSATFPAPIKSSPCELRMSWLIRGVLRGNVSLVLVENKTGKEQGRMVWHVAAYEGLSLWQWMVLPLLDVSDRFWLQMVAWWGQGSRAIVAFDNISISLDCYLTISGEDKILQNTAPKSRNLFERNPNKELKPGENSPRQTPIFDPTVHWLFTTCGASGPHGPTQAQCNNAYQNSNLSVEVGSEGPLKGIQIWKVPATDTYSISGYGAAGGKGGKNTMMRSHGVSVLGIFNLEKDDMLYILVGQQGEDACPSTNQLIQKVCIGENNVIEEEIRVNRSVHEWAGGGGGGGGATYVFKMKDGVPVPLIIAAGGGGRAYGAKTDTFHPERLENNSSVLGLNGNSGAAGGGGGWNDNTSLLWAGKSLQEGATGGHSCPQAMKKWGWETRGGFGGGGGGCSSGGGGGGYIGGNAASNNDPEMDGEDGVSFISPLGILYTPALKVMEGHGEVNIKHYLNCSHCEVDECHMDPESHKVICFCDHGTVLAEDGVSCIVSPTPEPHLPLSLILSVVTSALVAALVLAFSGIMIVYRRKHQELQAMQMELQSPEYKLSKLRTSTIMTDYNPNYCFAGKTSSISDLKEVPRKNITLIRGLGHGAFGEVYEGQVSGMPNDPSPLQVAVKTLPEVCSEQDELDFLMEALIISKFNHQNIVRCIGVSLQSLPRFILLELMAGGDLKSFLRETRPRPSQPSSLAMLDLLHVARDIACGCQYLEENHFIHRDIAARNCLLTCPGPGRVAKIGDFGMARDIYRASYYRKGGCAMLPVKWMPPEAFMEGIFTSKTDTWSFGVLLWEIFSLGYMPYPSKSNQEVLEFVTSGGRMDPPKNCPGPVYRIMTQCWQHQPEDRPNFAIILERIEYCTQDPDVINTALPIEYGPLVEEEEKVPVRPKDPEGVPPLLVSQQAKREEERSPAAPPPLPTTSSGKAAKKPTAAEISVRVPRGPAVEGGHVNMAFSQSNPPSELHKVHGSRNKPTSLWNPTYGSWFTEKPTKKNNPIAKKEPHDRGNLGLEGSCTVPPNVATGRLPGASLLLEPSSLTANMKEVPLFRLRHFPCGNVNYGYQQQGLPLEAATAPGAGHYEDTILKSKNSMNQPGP

Take `C[C@H](Oc1cc(C(=O)Nc2ccc(C(=O)N3CCN(C)CC3)cc2)nnc1N)c1c(Cl)ccc(F)c1Cl` [Example 2, {5-[(1S)-1-(2,6-dichloro-3-fluorophenyl)ethoxy]-6-aminopyridazin-3-yl}-N-{4-[(4-methylpiperazinyl)carbonyl]phenyl}carboxamide]: on ALK, the IC50 is greater than 50 nM.

For the molecule `CC(Oc1cc(C(=O)Nc2ccc(N3CCOCC3)cc2)nnc1N)c1c(Cl)ccc(F)c1Cl` (centres unmarked) [c, reference compound], the half-inhibitory concentration (IC50) at ALK was greater than 10 nM; on c-Met, less than 20 nM.

Regarding `C[C@@H]1CN(C(=O)c2ccc(NC(=O)c3cc(O[C@H](C)c4c(Cl)ccc(F)c4Cl)c(N)nn3)cc2)C[C@H](C)N1` [Example 18, {5-[(1R)-1-(2,6-dichloro-3-fluorophenyl)ethoxy]-6-aminopyridazin-3-yl}-N-{4-[((3S,5R)-3,5-dimethylpiperazinyl)carbonyl]phenyl}carboxamide], the results for the half-inhibitory concentration (IC50) on ALK, in the data set with H3122 tumor cells and in the data set on H2228 tumor cells were less than 1 nM, less than 30 nM and less than 100 nM, respectively. Also, the “Half-life in human liver microsomes” value in data set [1] is listed as “longer half-life”. The “Brain penetration (ratio of concentration in brain tissues to plasma)” value in “Brain penetration” is given as “higher brain penetration”. Further, the “Median survival time (MST)” value is 25 days in data set [2] (25 mg/kg BID) and 34.5 days in data set [2] (50 mg/kg BID).

As to `C[C@@H](Oc1cc(C(=O)Nc2ccc(C(=O)N3CCCNCC3)cc2)nnc1N)c1c(Cl)ccc(F)c1Cl` [Example 16, {5-[(1R)-1-(2,6-dichloro-3-fluorophenyl)ethoxy]-6-aminopyridazin-3-yl}-N-[4-(1,4-diazaperhydroepinylcarbonyl)phenyl]carboxamide], the IC50 at ALK is less than 1 nM; with H3122 tumor cells it was less than 30 nM; in the data set on H2228 tumor cells, less than 100 nM. Also, in data set [1], the “Half-life in human liver microsomes” value is recorded as “longer half-life”.

`CC(Oc1cc(C(=O)Nc2ccncc2)nnc1N)c1c(Cl)ccc(F)c1Cl` (centres unmarked) [a, reference compound]: the IC50 on ALK was greater than 10 nM; on c-Met, less than 20 nM.

For the molecule `COc1ccc(NC(=O)c2cc(OC(C)c3c(Cl)ccc(F)c3Cl)c(N)nn2)cc1` (centres unmarked) [b, reference compound], the 50% inhibitory concentration (IC50) on ALK is greater than 10 nM; at c-Met, less than 20 nM.

With `C[C@@H](Oc1cc(C(=O)Nc2ccc(C(=O)N3CCN4CCCC4C3)cc2)nnc1N)c1c(Cl)ccc(F)c1Cl` (stereo partly drawn) [Example 13, {5-[(1R)-1-(2,6-dichloro-3-fluorophenyl)ethoxy]-6-aminopyridazin-3-yl}-N-{4-[(3,6-diazabicyclo[4.3.0]non-3-yl)carbonyl]phenyl}carboxamide], the half-maximal inhibitory concentration (IC50) at ALK is less than 1 nM.

With `C[C@@H](Oc1cc(C(=O)Nc2ccc(C(=O)N3CCN(C)CC3)cc2)nnc1N)c1c(Cl)ccc(F)c1Cl` [Example 1, {5-[(1R)-1-(2,6-dichloro-3-fluorophenyl)ethoxy]-6-aminopyridazin-3-yl}-N-{4-[(4-methylpiperazinyl)carbonyl]phenyl}carboxamide], the 50% inhibitory concentration (IC50) at ALK was less than 1 nM; in the data set with H3122 tumor cells it was less than 50 nM; in the data set with H2228 tumor cells it was less than 100 nM. The “Induction of apoptosis in H3122 cells” value in the data set on H3122 cells is “more effective”.

For `C[C@@H](Oc1cc(C(=O)Nc2ccc(C(=O)N3CCCN(C)CC3)cc2)nnc1N)c1c(Cl)ccc(F)c1Cl` [Example 15, {5-[(1R)-1-(2,6-dichloro-3-fluorophenyl)ethoxy]-6-aminopyridazin-3-yl}-N-{4-[(4-methyl(1,4-diazaperhydroepinyl))carbonyl]phenyl}carboxamide], the IC50 at ALK was less than 1 nM.

Turning to `C[C@@H](Oc1cc(C(=O)Nc2ccc(C(=O)N3CCNC(C)(C)C3)cc2)nnc1N)c1c(Cl)ccc(F)c1Cl` [Example 17, {5-[(1R)-1-(2,6-dichloro-3-fluorophenyl)ethoxy]-6-aminopyridazin-3-yl}-N-{4-[(3,3-dimethylpiperazinyl)carbonyl]phenyl}carboxamide], at ALK, the IC50 was less than 1 nM.

Turning to `C[C@@H](Oc1cc(-c2cnn(C3CCNCC3)c2)cnc1N)c1c(Cl)ccc(F)c1Cl` [PF-2341066, crizotinib, reference compound], in data set [2] (50 mg/kg BID), the “Median survival time (MST)” value is 28 days.
